Data from patent publication US8410161B2, “Thioxanthone ring system derivatives” (National Defense Medical Center, priority 2010, dated 2013).
Where two headings read alike, the source gives them in different places.

Key:
A control cell lines = assay: MTT assay, A control cell lines (lung cancer cell); assay type: cell-based
Source text: Please refer to Table 1 and FIGS. 4A-4C. According to a MTT assay (Table 1), various cell viabilities of the A control cell lines can be obtained and illustrated in FIG. 4A while the compounds No. 2˜30 are used to treat A control cell lines, wherein A control cell lines are lung cancer cell.

A3 cell lines = assay: MTT assay, A3 cell lines (lung cancer stem cell); assay type: cell-based
Source text: Please to FIG. 4B, various cell viabilities of the A3 cell lines can be obtained through the MTT assay and illustrated in FIG. 4B while the compounds No. 1˜30 are used to treat A3 cell lines, wherein A3 cell lines are lung cancer stem cell.

CCRF-CEM = assay: NCI in vitro DTP human cell line screen, CCRF-CEM; assay type: cell-based; conditions: Leukemia, 1.00E−5 Molar
Procedure: (§1) Then, a cell toxicity assay of the cancer lines made by National Cancer Institute will be discussed as follows. The cell toxicity assay is performed by choosing ten compounds (existing certification numbers) from the 59 compounds disclosed in the present invention first.

K562 = assay: NCI in vitro DTP human cell line screen, K562; assay type: cell-based; conditions: Leukemia, 1.00E−5 Molar
Procedure: as §1

MOLT-4 = assay: NCI in vitro DTP human cell line screen, MOLT-4; assay type: cell-based; conditions: Leukemia, 1.00E−5 Molar
Procedure: as §1

RPMI-8226 = assay: NCI in vitro DTP human cell line screen, RPMI-8226; assay type: cell-based; conditions: Leukemia, 1.00E−5 Molar
Procedure: as §1

SR = assay: NCI in vitro DTP human cell line screen, SR; assay type: cell-based; conditions: Leukemia, 1.00E−5 Molar
Procedure: as §1

EKVX = assay: NCI in vitro DTP human cell line screen, EKVX; assay type: cell-based; conditions: Non-Small Cell Lung Cancer, 1.00E−5 Molar
Procedure: as §1

HOP-62 = assay: NCI in vitro DTP human cell line screen, HOP-62; assay type: cell-based; conditions: Non-Small Cell Lung Cancer, 1.00E−5 Molar
Procedure: as §1

HOP-92 = assay: NCI in vitro DTP human cell line screen, HOP-92; assay type: cell-based; conditions: Non-Small Cell Lung Cancer, 1.00E−5 Molar
Procedure: as §1

NCI-H226 = assay: NCI in vitro DTP human cell line screen, NCI-H226; assay type: cell-based; conditions: Non-Small Cell Lung Cancer, 1.00E−5 Molar
Procedure: as §1

NCI-H322M = assay: NCI in vitro DTP human cell line screen, NCI-H322M; assay type: cell-based; conditions: Non-Small Cell Lung Cancer, 1.00E−5 Molar
Procedure: as §1

NCI-H460 = assay: NCI in vitro DTP human cell line screen, NCI-H460; assay type: cell-based; conditions: Non-Small Cell Lung Cancer, 1.00E−5 Molar
Procedure: as §1

COLO 205 = assay: NCI in vitro DTP human cell line screen, COLO 205; assay type: cell-based; conditions: Colon Cancer, 1.00E−5 Molar
Procedure: as §1

HCT-15 = assay: NCI in vitro DTP human cell line screen, HCT-15; assay type: cell-based; conditions: Colon Cancer, 1.00E−5 Molar
Procedure: as §1

HT29 = assay: NCI in vitro DTP human cell line screen, HT29; assay type: cell-based; conditions: Colon Cancer, 1.00E−5 Molar
Procedure: as §1

SW-620 = assay: NCI in vitro DTP human cell line screen, SW-620; assay type: cell-based; conditions: Colon Cancer, 1.00E−5 Molar
Procedure: as §1

SF-268 = assay: NCI in vitro DTP human cell line screen, SF-268; assay type: cell-based; conditions: CNS Cancer, 1.00E−5 Molar
Procedure: as §1

SNB-19 = assay: NCI in vitro DTP human cell line screen, SNB-19; assay type: cell-based; conditions: CNS Cancer, 1.00E−5 Molar
Procedure: as §1

SNB-75 = assay: NCI in vitro DTP human cell line screen, SNB-75; assay type: cell-based; conditions: CNS Cancer, 1.00E−5 Molar
Procedure: as §1

U251 = assay: NCI in vitro DTP human cell line screen, U251; assay type: cell-based; conditions: CNS Cancer, 1.00E−5 Molar
Procedure: as §1

LOX IMVI = assay: NCI in vitro DTP human cell line screen, LOX IMVI; assay type: cell-based; conditions: Melanoma, 1.00E−5 Molar
Procedure: as §1

MALME-3M = assay: NCI in vitro DTP human cell line screen, MALME-3M; assay type: cell-based; conditions: Melanoma, 1.00E−5 Molar
Procedure: as §1

MDA-MB-435 = assay: NCI in vitro DTP human cell line screen, MDA-MB-435; assay type: cell-based; conditions: Melanoma, 1.00E−5 Molar
Procedure: as §1

SK-MEL-28 = assay: NCI in vitro DTP human cell line screen, SK-MEL-28; assay type: cell-based; conditions: Melanoma, 1.00E−5 Molar
Procedure: as §1

UACC-257 = assay: NCI in vitro DTP human cell line screen, UACC-257; assay type: cell-based; conditions: Melanoma, 1.00E−5 Molar
Procedure: as §1

UACC-62 = assay: NCI in vitro DTP human cell line screen, UACC-62; assay type: cell-based; conditions: Melanoma, 1.00E−5 Molar
Procedure: as §1

IGROV1 = assay: NCI in vitro DTP human cell line screen, IGROV1; assay type: cell-based; conditions: Ovarian Cancer, 1.00E−5 Molar
Procedure: as §1

OVCAR-4 = assay: NCI in vitro DTP human cell line screen, OVCAR-4; assay type: cell-based; conditions: Ovarian Cancer, 1.00E−5 Molar
Procedure: as §1

OVCAR-5 = assay: NCI in vitro DTP human cell line screen, OVCAR-5; assay type: cell-based; conditions: Ovarian Cancer, 1.00E−5 Molar
Procedure: as §1

OVCAR-8 = assay: NCI in vitro DTP human cell line screen, OVCAR-8; assay type: cell-based; conditions: Ovarian Cancer, 1.00E−5 Molar
Procedure: as §1

NCI/ADR-RES = assay: NCI in vitro DTP human cell line screen, NCI/ADR-RES; assay type: cell-based; conditions: Ovarian Cancer, 1.00E−5 Molar
Procedure: as §1

SK-OV-3 = assay: NCI in vitro DTP human cell line screen, SK-OV-3; assay type: cell-based; conditions: Ovarian Cancer, 1.00E−5 Molar
Procedure: as §1

786-0 = assay: NCI in vitro DTP human cell line screen, 786-0; assay type: cell-based; conditions: Renal Cancer, 1.00E−5 Molar
Procedure: as §1

ACHN = assay: NCI in vitro DTP human cell line screen, ACHN; assay type: cell-based; conditions: Renal Cancer, 1.00E−5 Molar
Procedure: as §1

RXF 393 = assay: NCI in vitro DTP human cell line screen, RXF 393; assay type: cell-based; conditions: Renal Cancer, 1.00E−5 Molar
Procedure: as §1

SN12C = assay: NCI in vitro DTP human cell line screen, SN12C; assay type: cell-based; conditions: Renal Cancer, 1.00E−5 Molar
Procedure: as §1

TK-10 = assay: NCI in vitro DTP human cell line screen, TK-10; assay type: cell-based; conditions: Renal Cancer, 1.00E−5 Molar
Procedure: as §1

UO-31 = assay: NCI in vitro DTP human cell line screen, UO-31; assay type: cell-based; conditions: Renal Cancer, 1.00E−5 Molar
Procedure: as §1

PC-3 = assay: NCI in vitro DTP human cell line screen, PC-3; assay type: cell-based; conditions: Prostate Cancer, 1.00E−5 Molar
Procedure: as §1

DU145 = assay: NCI in vitro DTP human cell line screen, DU145; assay type: cell-based; conditions: Prostate Cancer, 1.00E−5 Molar
Procedure: as §1

MCF7 = assay: NCI in vitro DTP human cell line screen, MCF7; assay type: cell-based; conditions: Breast Cancer, 1.00E−5 Molar
Procedure: as §1

MDA-MB-231/ATCC = assay: NCI in vitro DTP human cell line screen, MDA-MB-231/ATCC; assay type: cell-based; conditions: Breast Cancer, 1.00E−5 Molar
Procedure: as §1

HS 578-T = assay: NCI in vitro DTP human cell line screen, HS 578-T; assay type: cell-based; conditions: Breast Cancer, 1.00E−5 Molar
Procedure: as §1

BT-549 = assay: NCI in vitro DTP human cell line screen, BT-549; assay type: cell-based; conditions: Breast Cancer, 1.00E−5 Molar
Procedure: as §1

T-47D = assay: NCI in vitro DTP human cell line screen, T-47D; assay type: cell-based; conditions: Breast Cancer, 1.00E−5 Molar
Procedure: as §1

MDA-MB-468 = assay: NCI in vitro DTP human cell line screen, MDA-MB-468; assay type: cell-based; conditions: Breast Cancer, 1.00E−5 Molar
Procedure: as §1

60 cancer lines = assay: NCI cell toxicity assay of 60 cancer lines, whole panel summary; assay type: cell-based, human; conditions: 1.00E−5 Molar; for Growth Percent, Mean: mean over all cell lines; for cancer types with the better inhibition effect (in words): summary of Table 3
Procedure: as §1

[1] = summary of MTT cell viabilities

## CCCSc1ccc2c(=O)c3ccccc3sc2c1Cl [No. 3, 4-Chloro-3-(propylthio)-9H-thioxanthen-9-one]
A control cell lines
  cell viabilities of A control cell lines (MTT assay): 84.8 ± 2.95%
A3 cell lines
  cell viabilities of A3 cell lines (MTT assay): 103 ± 10.2%
CCRF-CEM
  Growth Percent: 85.29%
K562
  Growth Percent: 94.26%
MOLT-4
  Growth Percent: 94.70%
RPMI-8226
  Growth Percent: 104.20%
SR
  Growth Percent: 75.26%
EKVX
  Growth Percent: 96.42%
HOP-62
  Growth Percent: 105.09%
HOP-92
  Growth Percent: 98.11%
NCI-H226
  Growth Percent: 94.52%
NCI-H322M
  Growth Percent: 73.70%
NCI-H460
  Growth Percent: 59.83%
COLO 205
  Growth Percent: 92.63%
HCT-15
  Growth Percent: 98.58%
HT29
  Growth Percent: 103.50%
SW-620
  Growth Percent: 87.67%
SF-268
  Growth Percent: 80.00%
SNB-19
  Growth Percent: 94.29%
SNB-75
  Growth Percent: 100.85%
U251
  Growth Percent: 67.20%
LOX IMVI
  Growth Percent: 64.69%
MALME-3M
  Growth Percent: 92.96%
MDA-MB-435
  Growth Percent: 80.72%
SK-MEL-28
  Growth Percent: 104.13%
UACC-257
  Growth Percent: 98.85%
UACC-62
  Growth Percent: 84.56%
IGROV1
  Growth Percent: 91.28%
OVCAR-4
  Growth Percent: 73.74%
OVCAR-5
  Growth Percent: 94.79%
OVCAR-8
  Growth Percent: 83.50%
NCI/ADR-RES
  Growth Percent: 93.97%
SK-OV-3
  Growth Percent: 104.52%
786-0
  Growth Percent: 101.51%
ACHN
  Growth Percent: 74.17%
RXF 393
  Growth Percent: 106.97%
SN12C
  Growth Percent: 85.72%
TK-10
  Growth Percent: 103.80%
UO-31
  Growth Percent: 99.45%
PC-3
  Growth Percent: 94.80%
DU145
  Growth Percent: 91.93%
MCF7
  Growth Percent: 97.13%
MDA-MB-231/ATCC
  Growth Percent: 85.71%
HS 578-T
  Growth Percent: 94.80%
BT-549
  Growth Percent: 93.64%
T-47D
  Growth Percent: 98.14%
MDA-MB-468
  Growth Percent: 91.53%
60 cancer lines
  Growth Percent, Mean: 91.31%
  cancer types with the better inhibition effect (in words): better inhibition effect on non-small cell lung cancer

## O=c1c2ccccc2sc2c(Cl)c(SCc3ccccc3)ccc12 [No. 23, 3-(Benzylthio)-4-chloro-9H-thioxanthen-9-one]
A control cell lines; A control, lung cancer cell
  cell viabilities of A control cell lines (MTT assay): 36.6%
A control cell lines; [1]
  inhibition effect on A control cell line (in words): inhibition effect
A3 cell lines; A3, lung cancer stem cell
  cell viabilities of A3 cell lines (MTT assay): 65.9%
A3 cell lines; [1]
  inhibition effect on A3 cell line (in words): inhibition effect
CCRF-CEM
  Growth Percent: 59.07%
K562
  Growth Percent: 86.95%
MOLT-4
  Growth Percent: 98.34%
RPMI-8226
  Growth Percent: 89.98%
SR
  Growth Percent: 36.57%
EKVX
  Growth Percent: 93.46%
HOP-62
  Growth Percent: 94.64%
HOP-92
  Growth Percent: 74.60%
NCI-H226
  Growth Percent: 90.97%
NCI-H322M
  Growth Percent: 70.18%
NCI-H460
  Growth Percent: 29.14%
COLO 205
  Growth Percent: 63.36%
HCT-15
  Growth Percent: 82.20%
HT29
  Growth Percent: 60.70%
SW-620
  Growth Percent: 69.53%
SF-268
  Growth Percent: 100.29%
SNB-19
  Growth Percent: 83.57%
SNB-75
  Growth Percent: 75.12%
U251
  Growth Percent: 38.89%
LOX IMVI
  Growth Percent: 62.94%
MALME-3M
  Growth Percent: 93.38%
MDA-MB-435
  Growth Percent: 91.01%
SK-MEL-28
  Growth Percent: 119.10%
UACC-257
  Growth Percent: 109.84%
UACC-62
  Growth Percent: 90.92%
IGROV1
  Growth Percent: 56.63%
OVCAR-4
  Growth Percent: 15.10%
OVCAR-5
  Growth Percent: 94.34%
OVCAR-8
  Growth Percent: 82.11%
NCI/ADR-RES
  Growth Percent: 90.62%
SK-OV-3
  Growth Percent: 94.39%
786-0
  Growth Percent: 78.53%
ACHN
  Growth Percent: 26.15%
RXF 393
  Growth Percent: 106.84%
SN12C
  Growth Percent: 79.25%
TK-10
  Growth Percent: 95.49%
UO-31
  Growth Percent: 66.76%
PC-3
  Growth Percent: 83.92%
DU145
  Growth Percent: 107.70%
MCF7
  Growth Percent: 89.62%
MDA-MB-231/ATCC
  Growth Percent: 71.98%
HS 578-T
  Growth Percent: 91.28%
BT-549
  Growth Percent: 84.98%
T-47D
  Growth Percent: 82.55%
MDA-MB-468
  Growth Percent: 73.81%
60 cancer lines
  Growth Percent, Mean: 81.22%
  cancer types with the better inhibition effect (in words): better inhibition effect on Leukemia, non-small cell lung cancer, colorectal cancer, central nervous system cancer, ovarian cancer and kidney cancer
